Patent US11465994B2, “MGluR7 agonist compounds for treating mGluR7-regulated diseases, disorders, or conditions” (Takeda Pharmaceutical Company Limited, priority 2016, dated 2022)
Read-outs that look alike come from different tables or passages of the source.

What was measured:
Type in all cases: cell-based
[1] = system: CA1 pyramidal cells in mouse hippocampal slices (SC-CA1 pathway); assay: Electrophysiology: intracellular EPSC recordings from CA1 pyramidal cells in mouse hippocampal slices
Description: FIG. 3A is a graph showing the results of a glutamate release assay for CPD1 in mouse synaptosomes. FIG. 3B is a graph showing the results of a glutamate release potentiation assay. FIG. 3C and FIG. 3D provide graphs of electrophysiological recordings from the SC-CA1 pathway in mouse hippocampal slices. FIG. 3C is a graph comparing the changes in intracellular recordings of excitatory postsynaptic currents (EPSCs) as a result of contact with L-AP4 at a concentration of 0.5 mM, CPD 1 at a concentration of 1 μM, and CPD 1 at a concentration of 5 μM. FIG. 3D is a graph comparing the changes in intracellular recordings of EPSCs in mice with wild-type (WT) mGluR7 and mice with an mGluR7 knock-out contacted with CPD 1 at a concentration of 5 μM.
Intracellular recordings were made from CA1 pyramidal cells following SC stimulation in mouse hippocampal slices. Compounds were applied to the slices for 10 min, with recordings made over a 45 minutes period. mGluR7 KO mice were obtained from the Toronto Centre for Phenogenomics.

[2] = target: T1, mGluR8 (Homo sapiens, UniProt O00222); assay: Selectivity HTRF cAMP assay in CHO-mGluR8 transients
T1 construct: expressed in transfected cells; host or cells: CHO (transient transfection)
T1 sequence (O00222 34-908, species assumed): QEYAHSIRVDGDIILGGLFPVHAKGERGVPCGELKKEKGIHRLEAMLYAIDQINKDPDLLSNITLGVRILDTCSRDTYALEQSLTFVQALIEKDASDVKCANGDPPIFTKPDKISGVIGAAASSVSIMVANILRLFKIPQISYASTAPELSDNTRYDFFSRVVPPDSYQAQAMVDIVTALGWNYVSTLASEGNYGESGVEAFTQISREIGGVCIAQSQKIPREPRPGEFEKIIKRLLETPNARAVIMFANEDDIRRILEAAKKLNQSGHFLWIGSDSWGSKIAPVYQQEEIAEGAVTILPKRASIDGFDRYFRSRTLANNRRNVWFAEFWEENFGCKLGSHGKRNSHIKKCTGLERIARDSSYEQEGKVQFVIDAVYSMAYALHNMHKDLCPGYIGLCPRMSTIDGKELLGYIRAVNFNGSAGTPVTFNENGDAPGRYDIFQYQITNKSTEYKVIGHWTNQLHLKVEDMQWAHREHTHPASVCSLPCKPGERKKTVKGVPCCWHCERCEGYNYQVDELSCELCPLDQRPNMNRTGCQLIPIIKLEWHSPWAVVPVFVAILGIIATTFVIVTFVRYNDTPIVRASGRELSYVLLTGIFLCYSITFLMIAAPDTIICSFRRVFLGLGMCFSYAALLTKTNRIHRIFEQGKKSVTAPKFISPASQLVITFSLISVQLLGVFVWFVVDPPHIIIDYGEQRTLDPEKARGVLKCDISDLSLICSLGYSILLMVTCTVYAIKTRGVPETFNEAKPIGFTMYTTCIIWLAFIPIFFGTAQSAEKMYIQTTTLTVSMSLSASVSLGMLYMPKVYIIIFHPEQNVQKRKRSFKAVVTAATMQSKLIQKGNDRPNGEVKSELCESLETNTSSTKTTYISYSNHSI
Description: (§1) Compound activities were determined in CHO-CRE-luc cells stably expressing hu/mo mGluR7, using a cAMP reporter gene assay (Steady Glo, Promega). Selectivity was assessed in stable CHO-mGluR4 cells (DiscoverX) and CHO-mGluR8 transients using an HTRF cAMP assay (Cisbio).
(§2) The activation of mGluR7 was measured by the decreased forskolin stimulated luminescence signal. […] Forskolin stimulated luminescence signal was not reduced for mGluR4 and mGluR8.

[3] = target: T2, mouse mGluR7 (Mus musculus, UniProt Q68ED2); assay: cAMP reporter gene assay in CHO-CRE-luc cells stably expressing mouse mGluR7
T2 construct: expressed in transfected cells
T2 sequence (Q68ED2 35-915): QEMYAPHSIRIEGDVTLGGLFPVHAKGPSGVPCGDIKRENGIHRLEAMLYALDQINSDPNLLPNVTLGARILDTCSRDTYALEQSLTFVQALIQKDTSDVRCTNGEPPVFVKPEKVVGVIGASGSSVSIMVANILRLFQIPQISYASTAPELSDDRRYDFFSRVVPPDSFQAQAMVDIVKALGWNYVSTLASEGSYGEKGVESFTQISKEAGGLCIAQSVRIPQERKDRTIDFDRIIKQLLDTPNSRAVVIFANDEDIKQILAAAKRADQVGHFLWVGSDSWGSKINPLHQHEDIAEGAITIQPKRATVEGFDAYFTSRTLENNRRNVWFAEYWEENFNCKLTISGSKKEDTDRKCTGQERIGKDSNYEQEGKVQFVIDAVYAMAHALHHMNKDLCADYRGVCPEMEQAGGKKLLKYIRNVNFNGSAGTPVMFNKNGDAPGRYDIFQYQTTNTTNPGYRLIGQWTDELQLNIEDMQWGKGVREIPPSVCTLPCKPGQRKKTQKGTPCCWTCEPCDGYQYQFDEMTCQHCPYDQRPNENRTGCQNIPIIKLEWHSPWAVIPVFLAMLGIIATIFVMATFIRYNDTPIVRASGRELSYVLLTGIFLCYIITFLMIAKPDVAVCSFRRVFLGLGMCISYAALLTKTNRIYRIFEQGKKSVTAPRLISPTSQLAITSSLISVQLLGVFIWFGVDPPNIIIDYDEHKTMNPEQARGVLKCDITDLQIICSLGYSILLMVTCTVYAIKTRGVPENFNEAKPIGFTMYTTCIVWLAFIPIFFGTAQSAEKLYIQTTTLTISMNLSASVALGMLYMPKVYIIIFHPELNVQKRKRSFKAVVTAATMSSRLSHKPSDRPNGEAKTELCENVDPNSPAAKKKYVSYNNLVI
Description: as §1, §2

[4] = target: T3, mGluR7 (Homo sapiens, UniProt Q14831); assay: Kinetic impedance assay (desensitization) in stable CHO-mGluR7 cells, response to tool activator CPD A after pre-treatment; settings: pre-treatment, FIG. 1B
T3 sequence (Q14831 35-915): as the sequence (Q68ED2 35-915) above, with T454S, P486A, N544D counted along it
Description: Stable CHO-mGluR7 cells (DiscoverX) were pre-incubated with compounds (EC80, 1 h), washed and after 30 min, impedance changes upon addition of a tool mGluR7 activator (CPD A) were determined (Cellkey, Molecular Devices).

[5] = target: T3, mGluR7; assay: cAMP CRE-luciferase reporter gene assay (Steady Glo) in CHO-CRE-luc cells stably expressing human mGluR7; set-up: expressed in transfected cells
Description: as §1
The ability of the test compounds to activate mGluR7 was determined by their ability to reduce forskolin stimulated cAMP production. Compounds were assessed in a CRE-directed luciferase reporter gene assay, using a stable CHO cell line expressing the CRE-luc reporter and human mGluR7 genes. In this cell line, production of cAMP stimulated the transcription of the luciferase gene and luciferase activity was then measured in a luminescent enzyme assay (Steady Glo assay; Promega E2550). Activation of mGluR7 decreased the forskolin stimulated luminescence signal.
The day prior to the assay, compounds were serially diluted in DMSO (100× final assay concentration (FAC)), in 384-well plates which were then stored in the dark at room temperature (RT) until use. Cells were seeded at 12.5 k/well in white, clear bottom 384-well plates (Corning 3707) and left for one hour at RT followed by an overnight incubation (37° C.). The following day, the DMSO compound plate was diluted 1:20 (5×FAC) in Opti-MEM I (Life Technologies 11058021). The growth media was removed from the cell plate and replaced with 15 μl Opti-MEM I, followed by a 5 μl addition from the 5× compound plate and a fifteen minute incubation (37° C.). Forskolin (Sigma F3917) was then added to the wells (5 μl of 2.5 μM) and the plate was incubated for five hours (37° C.). During this incubation, the Steady Glo Substrate reagent was warmed to 37° C. Aliquots (11 ml; stored at −20° C.) of this reagent were prepared by dissolving the contents of 1 vial of lyophilised substrate in 100 ml Steady-Glo buffer. A 25 μl addition of the substrate was made to all wells and the plate was incubated for thirty minutes at RT, on a plate shaker (300 rpm; in the dark). Luminescence was then measured using the EnVision Multilabel Reader (Perkin Elmer).
Compound activity was examined using a 10-point, half log concentration-response range and each concentration was tested in duplicate wells. Luminescence values were normalised to ‘maximum’ (forskolin alone) and ‘minimum’ (forskolin in the presence of tool mGluR7 agonist) controls.

[6] = target: mGluR4 (Homo sapiens, UniProt Q14833); assay: Selectivity HTRF cAMP assay in stable CHO-mGluR4 cells
Sequence of mGluR4 (Q14833 33-912): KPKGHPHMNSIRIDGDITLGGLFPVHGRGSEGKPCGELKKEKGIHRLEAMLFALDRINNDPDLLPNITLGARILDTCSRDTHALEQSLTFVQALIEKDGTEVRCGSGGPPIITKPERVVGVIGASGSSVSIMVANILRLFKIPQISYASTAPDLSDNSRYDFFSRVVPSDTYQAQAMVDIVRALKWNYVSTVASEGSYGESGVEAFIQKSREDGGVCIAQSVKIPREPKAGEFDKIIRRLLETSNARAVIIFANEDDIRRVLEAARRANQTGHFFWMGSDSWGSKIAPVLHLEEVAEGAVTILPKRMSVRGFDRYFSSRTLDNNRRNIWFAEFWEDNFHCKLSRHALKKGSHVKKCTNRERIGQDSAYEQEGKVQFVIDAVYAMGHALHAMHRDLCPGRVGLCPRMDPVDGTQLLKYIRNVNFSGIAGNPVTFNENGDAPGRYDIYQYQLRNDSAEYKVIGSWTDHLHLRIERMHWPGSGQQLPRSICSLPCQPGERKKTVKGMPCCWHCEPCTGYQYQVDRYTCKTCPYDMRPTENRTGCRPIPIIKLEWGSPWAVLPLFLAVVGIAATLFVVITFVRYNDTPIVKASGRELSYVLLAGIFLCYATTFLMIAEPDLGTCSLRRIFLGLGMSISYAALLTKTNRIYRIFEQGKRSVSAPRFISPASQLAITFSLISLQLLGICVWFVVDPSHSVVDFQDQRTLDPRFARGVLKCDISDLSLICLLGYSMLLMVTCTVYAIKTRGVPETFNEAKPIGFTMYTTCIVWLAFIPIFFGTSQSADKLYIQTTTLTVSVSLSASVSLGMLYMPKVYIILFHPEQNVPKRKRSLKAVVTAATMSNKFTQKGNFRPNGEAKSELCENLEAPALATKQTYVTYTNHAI
Description: as §1, §2

[7] = system: mouse cortical synaptosomes; assay: Glutamate release assay in mouse cortical synaptosomes
Description: Stimulus induced glutamate release from mouse cortical synaptosomes was monitored using a fluorescence based glutamate dehydrogenase assay. Compounds were incubated for 1 or 10 min for the inhibition or potentiation modes respectively.

[8] = target: T3, mGluR7; assay: Mode of action: cAMP assay in CHO-CRE-luc human mGluR7 cells in presence of orthosteric antagonist LY341495; set-up: expressed in transfected cells; settings: FIG. 2C, 2D
Description: FIGS. 2A-2D are graphs of the results from in vitro cAMP assays in CHO-CRE-luc cells stably expressing human mGluR7 to determine the mode of action of CPD1. FIG. 2A provides the compound activity of non-selective agonist, L-AP4, with increasing concentrations of orthosteric antagonist, LY341495 (LY). FIG. 2B provides the compound activity of a positive allosteric modulator (PAM) compound, VU0422288, for the same concentrations of LY as shown in FIG. 2A.
as §1
The mode of action of the compound in Example 16 was determined by testing activity in the presence of the orthosteric antagonist LY341495 (LY).

Compound: C[C@H](C(=O)NC1COc2ccccc2C1S(C)(=O)=O)c1ccc(F)cc1 (single isomer, unassigned) [Example 16]
- activity on EPSCs in slices from mGluR7 KO mice (in words) ([1]; mGluR7 KO mice, 5 μM, FIG. 3D): inactive
- effect on excitatory postsynaptic currents (EPSCs) amplitude (in words) ([1]; wild-type mouse hippocampal slices, FIG. 3C): bimodal effect
- activity at mGluR8 (in words) ([2]; FIG. 1A): no activity
- EC50 mGluR8 ([2]; tested ≤10 μM): inactive
- Emax mGluR8 ([2]; tested ≤10 μM): inactive
- agonist activity at mGluR7, mouse samples (in words) ([3]; FIG. 1A): full agonist
- EC50 ([3]; mean ± standard deviation, n=2): 1.8 ± 3.5 nM
- Emax mGluR7 (mouse) ([3]; mean ± standard deviation, n=2): 100 ± 0.1 % control
- effect of pre-treatment on response to CPD A (in words) [4]: did not alter
- agonist activity at mGluR7, human samples (in words) ([5]; FIG. 1A): full agonist
- Emax mGluR7 (human) ([5]; mean ± standard deviation, n=2): 100 ± 1.8 % control
- EC50 ([5]; mean ± standard deviation, n=2, read-out: EC50 mGluR7 (human)): 6.9 ± 0.8 nM
- EC50 ([5]; reduction of forskolin stimulated cAMP (luminescence), CHO CRE-luc human mGluR7, read-out: EC50): 7 nM
- activity at mGluR4 (in words) ([6]; FIG. 1A): no activity
- EC50 mGluR4 ([6]; tested ≤10 μM): inactive
- Emax mGluR4 ([6]; tested ≤10 μM): inactive
- EC50 ([7]; Mus musculus, 1 min, short incubation (1 minute), FIG. 3A, read-out: EC50 of reduction of glutamate release): 34 nM
- enhancement of glutamate release ([7]; longer exposure (10 minutes), FIG. 3B): 92%
- reduction of glutamate release ([7]; short incubation (1 minute), FIG. 3A): 30%
- effect of increasing LY341495 concentrations on compound activity (in words) [8]: unaffected
